The values that follow come from patent US20060247250A1 (TargeGen, Inc., priority 2005, published 2006).

Some results are limits rather than exact numbers.

What all share (type): biochemical
One assay concerns the target T1, VEGFR2 (Homo sapiens, UniProt P35968).
T1 construct: purchased Cell Signaling/ProQinase
The assay can be described thus: VEGFR2 kinase assay, residual ATP luminescence. As to conditions: VEGFR2, poly(glu4tyr), 1.5 uM ATP, 60 minutes at 37 C; read-out: Vegfr IC50. On the procedure: (§1) The ability of compounds of the present invention to inhibit the activity of three groups of kinases was tested. Kinases tested included the src family (primarily src and yes), the angiogenic growth factors receptors (FGFR1, PDGFRb and VEGFR2) and the ephrin, EphB4. All kinase reactions were conducted in 96-well plates with a final reaction volume of 50 ul.
(§2) FGFR1 and VEGFR2 kinase assays were similarly performed. FGFR1 (76 ng/well, Panvera/Invitrogen) was combined with 12.5 mg/ml poly(glu4tyr) (Sigma) and 2.5 uM ATP. VEGFR2 (14.1 U/well, Cell Signaling/ProQinase) was used with 0.3 mg/ml poly(glu4tyr) and 1.5 uM ATP. Both were incubated for 60 minutes at 37 C, and the residual ATP was measured via luminescence, per the procedure described above.

The next assay deals with T2, PDGFRb (Homo sapiens, UniProt P09619).
T2 construct: purchased Panvera/Invitrogen
The assay can be described thus: PDGFRb kinase assay, residual ATP luminescence. As to conditions: PTK2 peptide, 500 nM ATP, 60 minutes at 37 C; read-out: Pdgfrβ IC50. The method, then: as §1
PDGFRb (0.16 ug/well, Panvera/Invitrogen) 500 nM ATP and the PTK2 peptide (700 uM) were combined with compound and reaction buffer as noted above for src. The reaction was incubated for 60 minutes at 37 C, and the residual ATP concentration was determined using the luciferase-based technique also noted above.

A further assay deals with T3, EphB4 (Homo sapiens, UniProt P54760).
T3 construct: purchased Upstate
T3 sequence (P54760 16-987): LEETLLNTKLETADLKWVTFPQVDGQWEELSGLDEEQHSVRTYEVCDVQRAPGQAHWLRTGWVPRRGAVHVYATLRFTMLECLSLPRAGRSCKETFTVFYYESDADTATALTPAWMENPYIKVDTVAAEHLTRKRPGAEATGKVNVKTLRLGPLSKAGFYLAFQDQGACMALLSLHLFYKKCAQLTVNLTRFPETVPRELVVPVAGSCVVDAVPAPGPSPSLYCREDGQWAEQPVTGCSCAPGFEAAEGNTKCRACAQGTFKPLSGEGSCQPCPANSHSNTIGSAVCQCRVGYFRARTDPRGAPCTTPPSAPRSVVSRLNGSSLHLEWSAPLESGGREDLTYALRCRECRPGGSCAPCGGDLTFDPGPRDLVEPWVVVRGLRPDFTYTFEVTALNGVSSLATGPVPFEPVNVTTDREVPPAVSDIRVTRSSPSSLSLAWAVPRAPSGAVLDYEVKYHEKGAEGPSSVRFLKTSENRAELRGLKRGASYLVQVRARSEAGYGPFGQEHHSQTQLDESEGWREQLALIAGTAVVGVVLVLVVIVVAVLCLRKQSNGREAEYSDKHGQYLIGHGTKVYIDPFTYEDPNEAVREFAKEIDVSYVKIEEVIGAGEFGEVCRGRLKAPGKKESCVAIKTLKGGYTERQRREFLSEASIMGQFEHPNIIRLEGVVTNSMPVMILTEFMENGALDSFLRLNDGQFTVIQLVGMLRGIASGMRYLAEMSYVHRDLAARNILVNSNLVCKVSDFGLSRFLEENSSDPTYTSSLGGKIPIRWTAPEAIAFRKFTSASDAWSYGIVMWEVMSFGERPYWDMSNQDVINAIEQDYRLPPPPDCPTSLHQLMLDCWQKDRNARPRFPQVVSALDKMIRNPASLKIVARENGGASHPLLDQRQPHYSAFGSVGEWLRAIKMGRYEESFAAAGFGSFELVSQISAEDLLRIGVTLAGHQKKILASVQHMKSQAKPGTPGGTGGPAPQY
The assay can be described thus: EphB4 kinase assay, residual ATP luminescence. As to conditions: poly(glu4tyr), 6 uM ATP, 60 minutes at 37 C. The method, then:
as §1
EphB4 kinase activity was similarly measured, using the luciferase-based technique described above. 28.9 mU/well EphB4 (Upstate) was reacted with 1 mg/ml poly(glu4tyr), 6 uM ATP and test reagents. The reaction was incubated for 60 minutes at 37 C and the residual ATP concentration was measured.

The next assay concerns the target T4, human Yes (Homo sapiens, UniProt P07947).
T4 construct: purchased Panvera/Invitrogen
Description: Yes kinase inhibition, luciferase-based residual ATP (KinaseGlo). The settings on record: recombinant human Yes, ATP 3 μM, PTK2 substrate, 90 minutes at room temperature. The method, then:
as §1
Recombinant human c-Src or Yes (28 ng/well, Panvera/Invitrogen, Madison Wis.), ATP (3 μM), a tyrosine kinase substrate (PTK2, 250 μM, Promega Corp., Madison Wis.), and test agents (at concentrations ranging from about 1 nM/l to about 100 μM/1), in the presence of Src kinase reaction buffer (Upstate USA, Lake Placid N.Y.). After reacting for about 90 minutes at room temperature, residual ATP was determined using a luciferase-based assay (KinaseGlo, Promega Corp.) as a measure of kinase activity. Data from four wells were then averaged and used to determine IC50 values for the test compounds (Prism software package, GraphPad Software, San Diego Calif.).

Another assay deals with T5, FGFR1 (Homo sapiens, UniProt P11362).
T5 construct: purchased Panvera/Invitrogen
The assay can be described thus: FGFR1 kinase assay, residual ATP luminescence. As to conditions: poly(glu4tyr), 2.5 uM ATP, 60 minutes at 37 C. On the procedure:
as §1, §2

T1 sequence (P35968 20-1356, species assumed): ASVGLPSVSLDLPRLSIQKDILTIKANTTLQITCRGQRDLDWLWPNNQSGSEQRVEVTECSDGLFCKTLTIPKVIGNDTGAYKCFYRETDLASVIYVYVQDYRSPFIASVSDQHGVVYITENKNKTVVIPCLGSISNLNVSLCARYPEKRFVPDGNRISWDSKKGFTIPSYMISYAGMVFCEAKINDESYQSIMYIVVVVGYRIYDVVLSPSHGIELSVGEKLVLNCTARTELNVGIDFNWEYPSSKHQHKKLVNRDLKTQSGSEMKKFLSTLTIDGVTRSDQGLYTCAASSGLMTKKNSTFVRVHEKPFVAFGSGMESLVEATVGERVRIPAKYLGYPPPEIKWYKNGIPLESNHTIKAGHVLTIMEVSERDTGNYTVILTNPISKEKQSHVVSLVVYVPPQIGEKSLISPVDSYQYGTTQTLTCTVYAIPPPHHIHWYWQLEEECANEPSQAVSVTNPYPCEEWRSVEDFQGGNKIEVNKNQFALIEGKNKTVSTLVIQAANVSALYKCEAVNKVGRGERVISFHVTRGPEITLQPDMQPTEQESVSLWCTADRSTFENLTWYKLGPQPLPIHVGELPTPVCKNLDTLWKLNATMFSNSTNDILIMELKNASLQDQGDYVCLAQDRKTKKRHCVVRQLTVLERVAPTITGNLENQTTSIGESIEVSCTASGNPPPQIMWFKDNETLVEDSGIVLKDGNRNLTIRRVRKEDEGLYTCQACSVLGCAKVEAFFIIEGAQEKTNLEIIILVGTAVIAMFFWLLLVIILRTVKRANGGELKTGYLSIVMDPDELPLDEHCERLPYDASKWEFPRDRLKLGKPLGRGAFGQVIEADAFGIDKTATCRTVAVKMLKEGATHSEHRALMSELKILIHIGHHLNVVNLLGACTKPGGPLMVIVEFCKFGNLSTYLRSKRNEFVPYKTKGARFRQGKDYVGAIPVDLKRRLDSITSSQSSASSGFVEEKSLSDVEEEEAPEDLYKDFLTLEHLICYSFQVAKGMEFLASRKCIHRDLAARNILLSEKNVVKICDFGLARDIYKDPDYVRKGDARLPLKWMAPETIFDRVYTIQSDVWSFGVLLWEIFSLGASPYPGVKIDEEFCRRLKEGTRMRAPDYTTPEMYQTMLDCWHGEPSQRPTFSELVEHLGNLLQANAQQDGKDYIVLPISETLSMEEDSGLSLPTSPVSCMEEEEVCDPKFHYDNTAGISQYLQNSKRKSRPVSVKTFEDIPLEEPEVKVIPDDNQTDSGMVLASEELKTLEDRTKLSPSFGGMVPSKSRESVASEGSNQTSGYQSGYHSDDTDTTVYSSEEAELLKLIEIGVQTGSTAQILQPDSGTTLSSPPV
T5 sequence (P11362 22-822, species assumed): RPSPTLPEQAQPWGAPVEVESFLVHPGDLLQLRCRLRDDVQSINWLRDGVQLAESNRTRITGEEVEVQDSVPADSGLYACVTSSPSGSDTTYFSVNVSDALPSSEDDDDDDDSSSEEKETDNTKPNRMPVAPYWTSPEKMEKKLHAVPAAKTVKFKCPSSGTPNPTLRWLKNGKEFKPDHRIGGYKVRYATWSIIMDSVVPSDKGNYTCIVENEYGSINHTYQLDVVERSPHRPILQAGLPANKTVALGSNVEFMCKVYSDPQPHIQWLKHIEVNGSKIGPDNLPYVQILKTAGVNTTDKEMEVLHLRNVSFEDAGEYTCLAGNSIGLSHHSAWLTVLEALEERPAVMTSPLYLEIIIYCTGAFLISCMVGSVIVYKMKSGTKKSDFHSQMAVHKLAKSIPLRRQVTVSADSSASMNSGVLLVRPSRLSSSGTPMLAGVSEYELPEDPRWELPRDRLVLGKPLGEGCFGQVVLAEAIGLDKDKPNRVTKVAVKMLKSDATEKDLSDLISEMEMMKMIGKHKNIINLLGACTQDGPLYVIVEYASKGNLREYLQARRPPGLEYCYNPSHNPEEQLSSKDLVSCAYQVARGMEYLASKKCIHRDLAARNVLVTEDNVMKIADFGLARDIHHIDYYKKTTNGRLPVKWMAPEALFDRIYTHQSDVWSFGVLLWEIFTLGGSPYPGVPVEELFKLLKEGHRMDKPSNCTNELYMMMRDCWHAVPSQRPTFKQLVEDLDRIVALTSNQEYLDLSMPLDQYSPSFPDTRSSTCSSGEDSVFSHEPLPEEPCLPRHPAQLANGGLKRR
T4 sequence (P07947 whole entry): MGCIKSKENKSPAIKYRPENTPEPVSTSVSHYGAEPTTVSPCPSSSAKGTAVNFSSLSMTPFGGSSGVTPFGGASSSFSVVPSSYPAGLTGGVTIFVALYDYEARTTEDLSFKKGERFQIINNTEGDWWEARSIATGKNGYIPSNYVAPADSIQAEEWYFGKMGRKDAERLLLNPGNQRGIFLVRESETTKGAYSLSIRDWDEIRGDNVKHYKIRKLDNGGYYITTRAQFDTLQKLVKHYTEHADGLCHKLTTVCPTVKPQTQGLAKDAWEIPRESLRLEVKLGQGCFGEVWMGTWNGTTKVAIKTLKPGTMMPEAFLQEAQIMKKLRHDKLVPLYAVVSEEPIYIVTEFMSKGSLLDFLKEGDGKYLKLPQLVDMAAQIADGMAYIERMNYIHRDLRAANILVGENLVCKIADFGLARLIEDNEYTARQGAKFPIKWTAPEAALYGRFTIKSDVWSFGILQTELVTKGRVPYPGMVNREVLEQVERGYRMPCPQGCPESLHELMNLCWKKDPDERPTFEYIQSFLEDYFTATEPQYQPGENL
T2 sequence (P09619 33-1106, species assumed): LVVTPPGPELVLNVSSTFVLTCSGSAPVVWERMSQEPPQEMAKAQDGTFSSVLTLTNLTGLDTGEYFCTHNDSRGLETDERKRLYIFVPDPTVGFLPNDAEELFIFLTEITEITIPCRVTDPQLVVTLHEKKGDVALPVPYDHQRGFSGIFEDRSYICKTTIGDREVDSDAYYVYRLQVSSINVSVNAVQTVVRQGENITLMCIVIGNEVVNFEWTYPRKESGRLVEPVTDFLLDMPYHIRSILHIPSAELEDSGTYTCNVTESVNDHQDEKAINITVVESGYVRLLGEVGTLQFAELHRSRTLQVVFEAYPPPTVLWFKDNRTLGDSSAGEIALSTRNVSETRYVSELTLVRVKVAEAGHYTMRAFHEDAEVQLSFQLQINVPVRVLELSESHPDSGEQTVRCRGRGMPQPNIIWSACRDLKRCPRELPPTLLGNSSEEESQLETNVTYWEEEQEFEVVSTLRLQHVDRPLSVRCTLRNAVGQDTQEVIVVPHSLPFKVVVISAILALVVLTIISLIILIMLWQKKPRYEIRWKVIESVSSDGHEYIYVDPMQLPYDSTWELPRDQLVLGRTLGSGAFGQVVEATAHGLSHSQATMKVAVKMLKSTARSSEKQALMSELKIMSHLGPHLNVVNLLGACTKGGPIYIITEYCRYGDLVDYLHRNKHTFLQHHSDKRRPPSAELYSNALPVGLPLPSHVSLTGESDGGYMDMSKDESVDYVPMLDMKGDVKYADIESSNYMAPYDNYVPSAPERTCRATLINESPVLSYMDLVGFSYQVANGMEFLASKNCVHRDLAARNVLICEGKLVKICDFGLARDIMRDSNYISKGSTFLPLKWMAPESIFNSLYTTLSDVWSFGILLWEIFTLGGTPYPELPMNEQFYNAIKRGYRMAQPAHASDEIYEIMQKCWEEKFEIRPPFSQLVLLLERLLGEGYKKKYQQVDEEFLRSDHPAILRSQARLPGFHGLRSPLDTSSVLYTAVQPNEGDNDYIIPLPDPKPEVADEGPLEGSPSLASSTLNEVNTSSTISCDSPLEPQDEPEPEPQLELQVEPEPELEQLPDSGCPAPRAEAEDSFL

As for `O=C(Nc1cnc(Nc2cccc(OCCN3CCCC3)c2)nc1)c1c(Cl)cccc1Cl` [drawing 202], the IC50 at VEGFR2 is over 10000 nM; on PDGFRb, 181 nM; at EphB4, 434 nM; on human Yes it was 8 nM; against FGFR1, over 10000 nM.
As for `O=C(NCCN1CCCC1)c1ccc(Nc2ncc(NC(=O)c3cc(O)ccc3Cl)cn2)cn1` [drawing 204], the IC50 at VEGFR2 was determined as 870 nM; on PDGFRb it was 13 nM; at EphB4, 89 nM; at human Yes it was 3.1 nM; against FGFR1, 1000 nM.
For `O=C(Nc1cnc(Nc2cccc(OCCN3CCCC3)c2)nc1)c1cc(O)ccc1Cl` [drawing 201], the IC50 turned out to be 1260 nM on VEGFR2; 13 nM on PDGFRb; 109 nM at EphB4; 10 nM on human Yes; 7200 nM against FGFR1.
For the molecule `O=C(Nc1cnc(Nc2ccc(OCCN3CCCC3)cc2)nc1)c1cc(O)ccc1Cl` [drawing 200], the IC50 was found to be 564 nM at VEGFR2; 20 nM on PDGFRb; 200 nM on EphB4; 26 nM at human Yes; 20000 nM at FGFR1.
On the same counts, the results for `CC(C)N(CCO)C(=O)c1ccc(Nc2ncc(NC(=O)c3cc(O)ccc3Cl)cn2)cc1` [drawing 210] are over 10000 nM, 138 nM, 190 nM, 6 nM and over 10000 nM.
As to `O=C(NCCN1CCCC1)c1ccc(Nc2ncc(NC(=O)c3cc(O)ccc3Cl)cn2)cc1` [drawing 208], the IC50 on VEGFR2 was 257 nM; on PDGFRb it was 6.3 nM; at EphB4, 59 nM; at human Yes it was 4.4 nM; on FGFR1 it was 8200 nM.
`Clc1cccc(Cl)c1CNc1cnc(Nc2cccc(OCCN3CCCC3)c2)nc1` [drawing 211]: the IC50 at VEGFR2 is 138 nM; against EphB4, 190 nM; on human Yes it was 6 nM; at FGFR1, over 10000 nM.

Broadly, the IC50 is the concentration at which inhibition is half-maximal.
